Reference: BindingDB's records for doi:10.1021/jm00167a032 (Sankyo, 1990)

Molecular target: Arachidonate 5-lipoxygenase (Cavia porcellus)
Assay: Evaluated for inhibition of the formation and release of 5-lipoxygenase in guinea pig peritoneal PMNL

**Q.** `Cc1c(C)c2c(c(C)c1O)SCO2` was tested. Which IC50 did it give?
**A.** Its IC50 is 290 nM.

**Q.** Which IC50 does the source give for `Cc1c(C)c2c(c(C)c1O)SC(CCC(N)=O)O2` (stereo unspecified) here?
**A.** The IC50 was 520 nM.

**Q.** `Cc1c(C)c2c(c(C)c1O)SC(c1ccccc1)O2` (stereo unspecified) was tested. Which IC50 did it give?
**A.** The IC50 was 71 nM.

**Q.** `CCCCCCCC1Oc2c(C)c(C)c(O)c(C)c2S1` (stereo unspecified) was tested. Which IC50 did it give?
**A.** The IC50 was 220 nM.

**Q.** How did the IC50 turn out when `CCCCC1Oc2c(C)c(C)c(O)c(C)c2S1` (stereo unspecified) was run?
**A.** The IC50 was 59 nM.

**Q.** For `CCCC1Oc2c(C)c(C)c(O)c(C)c2S1` (stereo unspecified), which IC50 is on record?
**A.** Its IC50 is 25 nM.
